Results on three compounds are retold here after article doi:10.1101/2024.02.27.582382, “Distinct roles of the major binding residues in the cation-binding pocket of MelB” (bioRxiv, 2024).

Like-named read-outs stand apart in the source and are kept apart here.

Data set [1] has as its target T1, MelBSt (melibiose permease of Salmonella enterica serovar Typhimurium) (Salmonella enterica, UniProt P30878, D55C).
T1 construct: gene melB
Kind of data set: biochemical. The source says:
ITC on MelBSt (melibiose permease of Salmonella enterica serovar Typhimurium)

Data set [2] addresses T2, MelBSt (melibiose permease of Salmonella enterica serovar Typhimurium) (Salmonella enterica, UniProt P30878).
T2 construct: gene melB; full length, C-terminal His10 tag (plasmid pK95 delta-AH/MelBSt/CHis10), expressed in E. coli DW2; modelled residues 2-454 or 2-456
Kind of data set: ITC. It counts as binding. The note with it: pH 8.5, 25 °C, Na+-free, 20 mM Tris-HCl, 100 mM choline chloride, 0.035% UDM.

Another data set has as its target Asp59 (UniProt position 59, WDAINDPIMGW). Kind of data set: ITC. The note with it: cited from earlier work.

T1 sequence (P30878 whole entry D55C): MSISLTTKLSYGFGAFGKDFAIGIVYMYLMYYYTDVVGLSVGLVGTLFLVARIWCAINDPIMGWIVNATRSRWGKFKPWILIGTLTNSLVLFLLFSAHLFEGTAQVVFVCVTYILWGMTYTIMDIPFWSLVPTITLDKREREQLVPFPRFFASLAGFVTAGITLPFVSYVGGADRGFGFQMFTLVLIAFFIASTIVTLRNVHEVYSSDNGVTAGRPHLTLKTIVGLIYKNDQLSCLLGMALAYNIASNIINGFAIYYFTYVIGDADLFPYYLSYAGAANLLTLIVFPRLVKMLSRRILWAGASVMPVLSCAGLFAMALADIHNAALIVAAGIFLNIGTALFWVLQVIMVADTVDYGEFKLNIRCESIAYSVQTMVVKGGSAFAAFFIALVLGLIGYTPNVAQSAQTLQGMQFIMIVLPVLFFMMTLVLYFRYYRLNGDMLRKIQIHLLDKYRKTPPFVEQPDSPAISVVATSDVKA
T2 sequence (P30878 whole entry, the tested form may be a part): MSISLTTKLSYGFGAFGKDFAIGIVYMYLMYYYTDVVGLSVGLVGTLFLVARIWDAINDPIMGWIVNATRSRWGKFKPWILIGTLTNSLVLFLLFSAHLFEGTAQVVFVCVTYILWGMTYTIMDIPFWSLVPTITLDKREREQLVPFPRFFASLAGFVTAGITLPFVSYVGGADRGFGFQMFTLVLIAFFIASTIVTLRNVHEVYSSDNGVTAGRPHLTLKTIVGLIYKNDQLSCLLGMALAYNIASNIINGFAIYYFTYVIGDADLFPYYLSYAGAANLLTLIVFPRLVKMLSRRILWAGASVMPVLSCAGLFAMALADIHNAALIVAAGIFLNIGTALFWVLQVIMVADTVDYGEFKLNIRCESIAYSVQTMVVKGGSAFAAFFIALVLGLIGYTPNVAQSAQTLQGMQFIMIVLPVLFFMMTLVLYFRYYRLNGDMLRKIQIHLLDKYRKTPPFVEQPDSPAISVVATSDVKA

For the compound `OC[C@H]1O[C@H](OC[C@H]2OC(O)[C@H](O)[C@@H](O)[C@@H]2O)[C@H](O)[C@@H](O)[C@H]1O` (some centres unmarked) [melibiose], the Kd in data set [1] (read-out: Melibiose, pH 7.5, 25 °C, no Na+ or Li+, UDM) came to 5.82 ± 0.46 mM; in data set [2], 8.5 ± 0.21 mM. The compound `O=[N+]([O-])c1ccc(O[C@H]2O[C@H](CO)[C@H](O)[C@H](O)[C@H]2O)cc1` [α-NPG, 4-nitrophenyl-α-D-galactopyranoside] returned a Kd in data set [1] of 0.0151 ± 0.00186 mM. What is called pKa is the negative logarithm of the acid dissociation constant. For “Melibiose permease MelB (MelBSt) (Salmonella enterica serovar Typhimurium)”, the pKa in the data set with Asp59 (absence of melibiose (sugar-free)) was 6.25; with Asp59 (presence of melibiose) it was “approximately 6.5”.
